{"source": "patent US20200129499A1", "about": "“COMBINATION OF TASQUINIMOD OR A PHARMACEUTICALLY ACCEPTABLE SALT THEREOF AND A PD-1 AND/OR PD-L1 INHIBITOR, FOR USE AS A MEDICAMENT” (ACTIVE BIOTECH AB, priority 2015, published 2020)", "format_in_all_cases": "in vivo, mouse", "key": {"PD-1": {"tested_on": "PD-1", "assay": "PD-1 expression level after tasquinimod treatment (data not shown)", "conditions": "established MBT-2 tumors"}, "MBT-2 tumor cells": {"tested_on": "MBT-2 tumor cells", "assay": "Survival in orthotopic MBT-2 bladder tumor model", "conditions": "tasquinimod 30 mg/kg twice a day 21 days; Anti-PD1 10 mg/kg i.p. twice weekly; control 29 days; FIG. 9", "description": "FIG. 9: MBT-2 tumor cells were injected orthotopically into female C3H/HeJ mice. Briefly, after a period of 4-hour of water deprivation, mice were anaesthetized using a mix of Ketamine and Xylazine. A catheter (ref: 381212 24G, BD Insyte) was inserted in the bladder through the urethra and 30 μI 0.1 N HCl was injected for 15 seconds, then replaced by 30 μI 0.1 N NaOH for 15 seconds. MBT-2 tumor cells (2×1 06) were instilled into the bladder for 45 minutes. The treatment was initiated at day 3. Tasquinimod was given at the dose of 30 mg/kg by oral gavage twice a day for 21 consecutive days. Anti-PD1 (clone: RMP1-14) or its isotype control (clone 2A3) was injected by intraperitoneal route at the dose of 10 mg/kg twice weekly for two consecutive weeks (at D4, D7, D11 and D14). The survival of MBT-2 tumor-bearing mice treated with anti-PD1, tasquinimod, the combination, or IgG control are shown in FIG. 9 (n=13). Dunnet-Hsu test was used to compare overall survival between groups."}, "MBT-2 tumors": {"tested_on": "MBT-2 tumors", "assay": "Subcutaneous MBT-2 tumor growth in mice, initial combination study (Example 1)", "description": "Six to seven-week old C3H/HeN male mice were purchased from JANVIER Labs. MBT-2, a mouse bladder cancer cell line (M. S. Soloway., Intravesical and systemic chemotherapy in the management of superficial bladder cancer, Urol. Clin. North Am. 11 (4):623-635, 1984), was provided from JCRB Cell Bank and was cultured in Eagle's minimal essential medium (Life Technologies) supplemented with 10% fetal bovine serum.\n1×10^6 cells were injected subcutaneously into the flanks of mice and were allowed to grow until tumors reached a volume between 40 and 130 mm^3 (around day 10-1 1 post tumor cell inoculation).\nTumor volumes in mm^3 were assessed by caliper measurements and were calculated by the formula=(Width)^2×Length 12.\nAs mentioned in Table 2, the mice were treated with tasquinimod (30 mg/kg) p.o. (per os, i.e. oral administration) twice a day. For the blockade of PD-L1, 200 μg of the […] (clone 10F.9G2; Bio-XCell) was administered i.p. (intraperitoneally) to mice every 3 days. All studies were approved by the Bioethics committee of IPSEN (CE2A) and by the French Ministry of Agriculture and Fisheries' veterinary services."}}}
{"smiles": "COc1cccc2c1c(O)c(C(=O)N(C)c1ccc(C(F)(F)F)cc1)c(=O)n2C", "note": "[tasquinimod, 4-hydroxy-5-methoxy-N,1-dimethyl-2-oxo-N-[4-(trifluoromethyl)phenyl]-1,2-dihydroquinoline-3-carboxamide]", "values": [{"measurement": "expression level of PD-1", "setting": "PD-1", "result": "not changed"}, {"measurement": "median survival of mice", "setting": "MBT-2 tumor cells", "result": 27, "unit": "days"}, {"measurement": "Average of tumor volumes", "setting": "MBT-2 tumors; day 0 post tumor cell inoculation (before treatment)", "result": 0, "unit": "mm^3"}, {"measurement": "Average of tumor volumes", "setting": "MBT-2 tumors; day 10 post tumor cell inoculation", "result": 49, "unit": "mm^3"}, {"measurement": "Average of tumor volumes", "setting": "MBT-2 tumors; day 11 post tumor cell inoculation", "result": 61, "unit": "mm^3"}, {"measurement": "Average of tumor volumes", "setting": "MBT-2 tumors; day 13 post tumor cell inoculation", "result": 180, "unit": "mm^3"}, {"measurement": "Average of tumor volumes", "setting": "MBT-2 tumors; day 14 post tumor cell inoculation", "result": 225, "unit": "mm^3"}, {"measurement": "Average of tumor volumes", "setting": "MBT-2 tumors; day 15 post tumor cell inoculation", "result": 309, "unit": "mm^3"}, {"measurement": "Average of tumor volumes", "setting": "MBT-2 tumors; day 17 post tumor cell inoculation", "result": 390, "unit": "mm^3"}, {"measurement": "impact on tumor growth of MBT-2 tumors", "setting": "MBT-2 tumors; tasquinimod 30 mg/kg p.o. twice a day, antibody 200 μg i.p. every 3 days, from day 10-11", "result": "slight non-significant impact"}]}
